Four molecules from paper PMC4284807, “Activation of RidA chaperone function by N-chlorination” (Nature Communications, 2014) can be followed below.

One data set has as its target T1, RidA (untreated) (Escherichia coli, UniProt P0AF93).
T1 construct: full-length recombinant RidA, 13,480 Da (fits loss of initiator Met), trimer; untreated
T1 sequence (P0AF93 2-128): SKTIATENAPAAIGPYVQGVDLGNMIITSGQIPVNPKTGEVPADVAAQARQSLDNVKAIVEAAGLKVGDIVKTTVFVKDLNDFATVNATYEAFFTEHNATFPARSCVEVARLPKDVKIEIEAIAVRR
Nature of the data set: fluorescence titration of dye with protein. The data set is classed as binding. As to conditions: protein varied 1-200 μM, 0.2 μM dye, 40 mM HEPES-KOH pH 7.4, emission 613 nm, hydrophobicity probe.

The target of the next data set is T2, IlvA (Escherichia coli, UniProt P04968).
T2 sequence (P04968 1-514): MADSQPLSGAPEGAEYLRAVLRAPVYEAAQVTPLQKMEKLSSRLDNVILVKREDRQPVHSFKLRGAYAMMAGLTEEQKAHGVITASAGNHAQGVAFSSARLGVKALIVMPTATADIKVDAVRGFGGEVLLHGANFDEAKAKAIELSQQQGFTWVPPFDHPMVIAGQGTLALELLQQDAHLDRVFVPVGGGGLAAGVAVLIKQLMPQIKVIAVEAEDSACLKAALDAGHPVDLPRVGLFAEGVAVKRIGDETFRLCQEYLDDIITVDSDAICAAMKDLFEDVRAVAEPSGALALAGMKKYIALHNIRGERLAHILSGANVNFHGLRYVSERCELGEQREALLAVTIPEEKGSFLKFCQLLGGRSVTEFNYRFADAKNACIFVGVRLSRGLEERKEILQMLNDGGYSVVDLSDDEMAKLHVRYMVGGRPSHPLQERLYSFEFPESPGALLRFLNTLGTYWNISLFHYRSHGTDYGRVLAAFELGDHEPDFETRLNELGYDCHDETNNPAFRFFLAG
Nature of the data set: alpha-ketobutyrate formation at […] nm. As to conditions: 10 mM threonine, 0.9 μM IlvA, MES/HEPES/TAPS pH 7.5, 20 °C; accelerated by untreated RidA. The class given is biochemical.

Data set [1] deals with the molecule itself. In words: SEC; analytical gel filtration, Superdex 75 10/300 GL, flow rate 0.5 ml min^-1; untreated RidA or RidA treated with a 10-fold excess of HOCl for 5 min at 37 °C (HOCl removed). Background: SEC sorts molecules by how far they enter the pores of the column.

Molecule `CCN(CC)c1ccc2nc3c4ccccc4c(=O)cc-3oc2c1` [Nile red] had a dissociation constant (Kd) at RidA (untreated) of 121 µM.

Take `C[C@@H](O)[C@H](N)C(=O)O` [threonine]: the “alpha-ketobutyrate formation at 230 nm” value on IlvA is given as “α-ketobutyrate generation from threonine catalysed by threonine deaminase IlvA”.

B1: E. coli RidA, untreated (natural protein, UniProt P0AF93 1-128, looked up)
chain: MSKTIATENAPAAIGPYVQGVDLGNMIITSGQIPVNPKTGEVPADVAAQARQSLDNVKAIVEAAGLKVGDIVKTTVFVKDLNDFATVNATYEAFFTEHNATFPARSCVEVARLPKDVKIEIEAIAVRR
notes: RidA of Escherichia coli, member of the YjgF/YER057c/UK114 family; mass of the unmodified full-length protein printed as 13,480 Da; The printed mass of 13,480 Da may mean that the first methionine is missing (surmise); also called RidA-UT; untreated RidA
For B1, in data set [1], the “stoichiometry N” value amounted to 3.

B2: HOCl-treated RidA (RidA_(HOCl)) (natural protein, E. coli, UniProt P0AF93 1-128, looked up)
chain: B1 chain
modifications: N-chlorinated: up to seven chlorine atoms added (positions not mapped); up to five oxygen atoms added to methionine and cysteine residues
notes: RidA of Escherichia coli, treated with HOCl; The chlorinated residues are not identified; the authors suspect lysine, arginine and the N-terminus; also called N-chlorinated RidA; source: HOCl removed with Micro Bio-Spin columns
Turning to B2, in data set [1], the binding result is listed as “binds”.

By Kd is commonly meant the free concentration of one partner at which half of the binding sites on the other are occupied at equilibrium, for simple one-to-one binding. A higher Kd goes with weaker binding. The stoichiometry N is the number of molecules, sites or subunits per partner or assembly.
